Data as given in ChEMBL document CHEMBL1136664, “N-Phenyl-N-purin-6-yl ureas: the design and synthesis of p38alpha MAP kinase inhibitors” (Bioorg Med Chem Lett, 2003).
In brackets after ≈: the same amount, converted by molar mass.

Molecular target: Mitogen-activated protein kinase 14 (Homo sapiens, UniProt Q16539)
Assay: Inhibition of human MAP p38-alpha kinase in vitro.

Mitogen-activated protein kinase 14, sequence (Q16539 whole entry): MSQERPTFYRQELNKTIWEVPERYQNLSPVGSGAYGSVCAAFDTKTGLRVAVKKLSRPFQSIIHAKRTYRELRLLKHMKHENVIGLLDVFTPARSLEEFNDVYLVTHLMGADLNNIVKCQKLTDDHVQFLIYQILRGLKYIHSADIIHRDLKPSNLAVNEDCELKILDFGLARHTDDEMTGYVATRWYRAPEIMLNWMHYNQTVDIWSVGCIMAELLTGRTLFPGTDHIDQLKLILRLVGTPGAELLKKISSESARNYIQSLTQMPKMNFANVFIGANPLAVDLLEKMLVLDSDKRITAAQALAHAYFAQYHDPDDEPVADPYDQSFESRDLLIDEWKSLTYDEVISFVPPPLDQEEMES

First: NC(=O)N(c1c(F)cccc1F)c1nc(-c2ccccc2F)nc2c1ncn2Cc1ccccc1
Second: Cn1cnc2c(N(C(N)=O)c3c(F)cccc3F)nc(-c3ccccc3F)nc21
The IC50 of the first is 2.2-fold lower: 0.016 µM for the first, 0.036 µM for the second. The first is the more potent here.

Compared with `Cc1ccc(-c2nc(N(C(N)=O)c3c(F)cccc3F)c3ncn(C)c3n2)cc1`, `Cn1cnc2c(N(C(N)=O)c3c(F)cccc3F)nc(-c3ccc(F)cc3)nc21` is 2.1-fold lower in IC50: 2.1 µM for the first, 1 µM for the second.

First: Cc1cccc(-c2nc(N(C(N)=O)c3c(F)cccc3F)c3ncn(C)c3n2)c1
Second: Cn1cnc2c(N(C(N)=O)c3c(F)cccc3F)nc(-c3cccc(F)c3)nc21
The IC50 of the first is 14-fold lower: 0.35 µM for the first, 5 µM for the second.

Going from `Cn1cnc2c(N(C(N)=O)c3c(F)cccc3F)nc(-c3cc(F)cc(F)c3)nc21` to `Cn1cnc2c(N(C(N)=O)c3c(F)cccc3F)nc(-c3ccc(F)cc3F)nc21`, the IC50 falls from over 16.7 µM to 0.026 µM.

`Cc1cc(F)ccc1-c1nc(N(C(N)=O)c2c(F)cc(F)cc2F)c2ncn(C)c2n1` and `Cc1cc(F)ccc1-c1nc(N(C(N)=O)c2c(F)cccc2F)c2ncn(C)c2n1` are within 1.5-fold of each other in IC50: 0.163 µM for the first, 0.128 µM for the second.

First: Cc1cc(F)ccc1-c1nc(N(C(N)=O)c2ccc(F)cc2)c2ncn(C)c2n1
Second: Cc1cc(F)ccc1-c1nc(N(C(N)=O)c2ccc(Cl)cc2)c2ncn(C)c2n1
The IC50 of the first is 7-fold lower: 1.4 µM for the first, 9.8 µM for the second.

Compared with `Cc1ccccc1-c1nc(N(C(N)=O)c2c(F)cccc2F)c2ncn(C)c2n1`, `Cn1cnc2c(N(C(N)=O)c3c(F)cccc3F)nc(-c3ccccc3Cl)nc21` is 4.7-fold lower in IC50: 0.14 µM for the first, 0.03 µM for the second. The second is the more potent here.

Going from `Cc1cc(F)ccc1-c1nc(N(C(N)=O)c2ccccc2Cl)c2ncn(C)c2n1` to `COc1ccccc1N(C(N)=O)c1nc(-c2ccc(F)cc2C)nc2c1ncn2C`, the IC50 rises from 0.123 µM to over 16.7 µM.

`Cn1cnc2c(N(C(N)=O)c3c(F)cccc3F)nc(-c3ccccc3)nc21` and `Cn1cnc2c(N(C(N)=O)c3c(F)cccc3F)nc(-c3cccc(Cl)c3)nc21` are within 1.5-fold of each other in IC50: 0.51 µM for the first, 0.55 µM for the second.

First: Cc1cc(F)ccc1-c1nc(N(C(N)=O)c2ccccc2)c2ncn(C)c2n1
Second: CN(C)CCn1cnc2c(N(C(N)=O)c3c(F)cccc3F)nc(-c3ccccc3F)nc21
The IC50 of the first is higher: over 16.7 µM for the first, 0.082 µM for the second.

Tested on: not listed separately
Assay: Aqueous solubility at pH 7.4
Format: physicochemical

Going from `CN(C)CCn1cnc2c(N(C(N)=O)c3c(F)cccc3F)nc(-c3ccccc3F)nc21` to `Cn1cnc2c(N(C(N)=O)c3c(F)cccc3F)nc(-c3ccccc3F)nc21`, the solubility falls from over 20 µM to 1 µM (≈ 0.398 µg/mL).
